Results reported in ChEMBL document CHEMBL1201862, “PubChem BioAssay data set” (2004).
Active and inactive are the calls of the source.

How the values were obtained:
[1] = molecular target: T1, Calpain-2 catalytic subunit (Sus scrofa, UniProt P43367); assay: pig calpain II inhibitor potency, dose response, biochemical, fluorogenic peptide substrate (AID 1420); type: functional
T1 sequence (P43367 whole entry): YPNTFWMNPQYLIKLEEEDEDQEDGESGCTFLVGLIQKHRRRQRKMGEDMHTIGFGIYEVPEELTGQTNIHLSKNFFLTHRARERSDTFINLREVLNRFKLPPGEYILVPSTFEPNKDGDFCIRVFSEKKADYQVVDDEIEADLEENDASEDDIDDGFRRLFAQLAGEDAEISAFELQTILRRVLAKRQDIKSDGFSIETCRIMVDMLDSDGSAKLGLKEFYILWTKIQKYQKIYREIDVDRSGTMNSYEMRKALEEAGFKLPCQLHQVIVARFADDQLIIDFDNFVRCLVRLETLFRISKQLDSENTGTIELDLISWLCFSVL

Leucine aminopeptidase = molecular target: T2, Leucine aminopeptidase (Plasmodium falciparum 3D7, UniProt Q8IL11); assay: P. falciparum M17LAP inhibitors, primary screen, biochemical, fluorogenic H-Leu-NHMec substrate, 1536-well (AID 1619); type: functional
T2 sequence (Q8IL11 whole entry): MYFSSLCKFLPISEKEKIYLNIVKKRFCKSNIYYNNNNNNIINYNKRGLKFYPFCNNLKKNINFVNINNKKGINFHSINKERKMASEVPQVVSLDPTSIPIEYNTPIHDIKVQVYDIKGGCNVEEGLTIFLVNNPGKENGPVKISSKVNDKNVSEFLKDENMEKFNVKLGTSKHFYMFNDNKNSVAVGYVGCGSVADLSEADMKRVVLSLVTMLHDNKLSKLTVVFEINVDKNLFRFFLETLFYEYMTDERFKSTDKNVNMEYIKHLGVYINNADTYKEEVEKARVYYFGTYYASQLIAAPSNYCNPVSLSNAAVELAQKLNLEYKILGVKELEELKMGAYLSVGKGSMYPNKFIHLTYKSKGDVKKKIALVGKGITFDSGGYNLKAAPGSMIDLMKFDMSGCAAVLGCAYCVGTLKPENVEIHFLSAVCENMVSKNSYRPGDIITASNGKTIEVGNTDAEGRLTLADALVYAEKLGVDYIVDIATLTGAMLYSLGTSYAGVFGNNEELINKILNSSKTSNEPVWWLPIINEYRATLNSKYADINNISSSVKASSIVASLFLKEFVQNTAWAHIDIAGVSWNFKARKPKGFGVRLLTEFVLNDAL

[2] = molecular target: T3, Rac GTPase-activating protein 1 (Homo sapiens, UniProt Q9H0H5); assay: MgcRacGAP GTPase-activating activity inhibitors, confirmation, biochemical, ADP Hunter fluorescence, primary and confirmatory (AID 624330); type: functional
T3 sequence (Q9H0H5 whole entry): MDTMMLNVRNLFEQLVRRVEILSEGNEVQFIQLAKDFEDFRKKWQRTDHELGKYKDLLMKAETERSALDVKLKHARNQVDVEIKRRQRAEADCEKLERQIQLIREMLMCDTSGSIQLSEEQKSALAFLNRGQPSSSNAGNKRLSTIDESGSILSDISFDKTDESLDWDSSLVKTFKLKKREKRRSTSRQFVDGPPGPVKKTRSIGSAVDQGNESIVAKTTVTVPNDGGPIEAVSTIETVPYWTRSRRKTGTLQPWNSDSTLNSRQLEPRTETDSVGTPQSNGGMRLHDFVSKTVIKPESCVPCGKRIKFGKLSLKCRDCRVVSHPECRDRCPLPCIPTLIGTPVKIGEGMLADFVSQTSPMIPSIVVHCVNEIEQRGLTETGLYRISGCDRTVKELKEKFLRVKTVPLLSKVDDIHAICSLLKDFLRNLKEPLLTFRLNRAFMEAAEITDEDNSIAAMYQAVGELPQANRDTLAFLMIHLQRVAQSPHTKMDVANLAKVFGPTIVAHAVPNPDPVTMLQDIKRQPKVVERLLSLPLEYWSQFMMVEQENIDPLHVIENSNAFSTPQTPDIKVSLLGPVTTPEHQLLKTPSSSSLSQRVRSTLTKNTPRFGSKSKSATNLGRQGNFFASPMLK

Paired box protein Pax-8 = Paired box protein Pax-8 (Homo sapiens, UniProt Q06710); assay: inhibitors of PAX8-driven TPO luciferase reporter, dose response, RMG-I cells, cherry-pick (AID 687027); type: functional, cell-based;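 further: luciferase reporter driven by Pax8 target thyroperoxidase promoter measured by SteadyGlo luminescence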
Chain of Paired box protein Pax-8 (Q06710 whole entry): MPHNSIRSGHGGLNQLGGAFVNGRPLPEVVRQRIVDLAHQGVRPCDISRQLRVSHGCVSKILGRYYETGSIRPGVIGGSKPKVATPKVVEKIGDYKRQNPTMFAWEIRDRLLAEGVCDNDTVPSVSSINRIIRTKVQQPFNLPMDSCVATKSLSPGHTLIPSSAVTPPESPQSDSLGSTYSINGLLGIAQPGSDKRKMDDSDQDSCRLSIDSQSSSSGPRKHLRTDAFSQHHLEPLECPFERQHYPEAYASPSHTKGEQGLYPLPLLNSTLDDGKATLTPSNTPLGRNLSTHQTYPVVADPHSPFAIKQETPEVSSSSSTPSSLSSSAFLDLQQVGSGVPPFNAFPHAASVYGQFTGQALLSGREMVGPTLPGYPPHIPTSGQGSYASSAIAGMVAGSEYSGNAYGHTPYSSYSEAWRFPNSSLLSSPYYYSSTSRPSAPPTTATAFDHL

[3] = NIH-3T3 fibroblast cytotoxicity, dose response, cytotoxicity control, cell-based, fluorescence, Alamar Blue, secondary assay (AID 2327); type: functional;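 further: NIH-3T3 mouse fibroblasts cultured with fluconazole at 8 µg/mL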
[4] = C. albicans growth with fluconazole, confirmation, fluorescence, retest (AID 2467); type: functional, cell-based
H4 = assay: Luminescence Cell-Based Dose Response HTS to Identify Activators of 5'UTR Stem-Loop Driven Prion Protein mRNA Translation in H4 Neuroglioblastoma Cells. [Related pubchem assays: 1829 (Project Summary), 1814 (Primary HTS)]; type: functional; settings: Homo sapiens
[5] = Luminescence Cell-Based Dose Confirmation HTS to Identify Activators of 5'UTR Stem-Loop Driven Alpha-Synuclein mRNA Translation in H4 Neuroglioblastoma Cells. [Related pubchem assays: 1829 (Project Summary), 1814 (Primary HTS)]; type: functional
[6] = molecular target: T4, Corticotropin-releasing factor receptor 2/Corticotropin-releasing factor-binding protein (Homo sapiens, UniProt P24387+Q13324); assay: Dose Response confirmation of uHTS hits for small molecule antagonists of the CRF-binding protein and CRF-R2 receptor complex.; type: functional; settings: read-out: IC50_Mean
T4 sequence (Q13324 whole entry): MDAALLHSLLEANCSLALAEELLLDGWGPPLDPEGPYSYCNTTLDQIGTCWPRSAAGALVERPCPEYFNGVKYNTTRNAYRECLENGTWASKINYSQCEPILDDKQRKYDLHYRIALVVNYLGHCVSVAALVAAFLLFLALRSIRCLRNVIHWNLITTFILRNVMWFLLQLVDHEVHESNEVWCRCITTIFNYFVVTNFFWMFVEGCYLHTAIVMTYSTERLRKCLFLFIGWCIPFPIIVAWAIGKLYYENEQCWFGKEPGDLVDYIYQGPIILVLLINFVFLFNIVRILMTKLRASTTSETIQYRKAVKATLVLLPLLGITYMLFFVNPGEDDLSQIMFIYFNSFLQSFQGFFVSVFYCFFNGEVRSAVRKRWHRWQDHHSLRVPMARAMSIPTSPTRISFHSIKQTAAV
T4 sequence (P24387 whole entry): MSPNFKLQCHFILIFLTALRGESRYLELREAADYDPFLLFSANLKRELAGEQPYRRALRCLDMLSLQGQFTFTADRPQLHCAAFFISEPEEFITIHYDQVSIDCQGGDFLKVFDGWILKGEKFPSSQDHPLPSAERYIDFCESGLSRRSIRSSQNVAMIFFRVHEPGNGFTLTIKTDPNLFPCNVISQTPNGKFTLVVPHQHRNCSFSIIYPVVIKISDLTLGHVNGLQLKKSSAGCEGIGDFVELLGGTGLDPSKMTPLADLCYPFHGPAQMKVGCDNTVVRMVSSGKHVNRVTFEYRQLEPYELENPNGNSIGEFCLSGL

[7] = molecular target: T4, Corticotropin-releasing factor receptor 2/Corticotropin-releasing factor-binding protein; assay: activators of CRF receptor 2 with binding protein – uHTS hits, confirmation (AID 602473); type: functional; settings: read-out: EC50_Mean
[8] = Luminescence Cell-Based Dose Response HTS to Identify Activators of Luciferase Translation or Activity in H4 […] Cells. [Related pubchem assays: 1829 (Project Summary), 1814 (Primary HTS)]; type: functional
[9] = molecular target: T5, Replicative DNA helicase DnaB (Mycobacterium tuberculosis, UniProt P9WMR3); assay: DnaB intein splicing inhibitors, dose response, biochemical, cell-free fluorescence (AID 449749); type: functional
T5 sequence (P9WMR3 whole entry): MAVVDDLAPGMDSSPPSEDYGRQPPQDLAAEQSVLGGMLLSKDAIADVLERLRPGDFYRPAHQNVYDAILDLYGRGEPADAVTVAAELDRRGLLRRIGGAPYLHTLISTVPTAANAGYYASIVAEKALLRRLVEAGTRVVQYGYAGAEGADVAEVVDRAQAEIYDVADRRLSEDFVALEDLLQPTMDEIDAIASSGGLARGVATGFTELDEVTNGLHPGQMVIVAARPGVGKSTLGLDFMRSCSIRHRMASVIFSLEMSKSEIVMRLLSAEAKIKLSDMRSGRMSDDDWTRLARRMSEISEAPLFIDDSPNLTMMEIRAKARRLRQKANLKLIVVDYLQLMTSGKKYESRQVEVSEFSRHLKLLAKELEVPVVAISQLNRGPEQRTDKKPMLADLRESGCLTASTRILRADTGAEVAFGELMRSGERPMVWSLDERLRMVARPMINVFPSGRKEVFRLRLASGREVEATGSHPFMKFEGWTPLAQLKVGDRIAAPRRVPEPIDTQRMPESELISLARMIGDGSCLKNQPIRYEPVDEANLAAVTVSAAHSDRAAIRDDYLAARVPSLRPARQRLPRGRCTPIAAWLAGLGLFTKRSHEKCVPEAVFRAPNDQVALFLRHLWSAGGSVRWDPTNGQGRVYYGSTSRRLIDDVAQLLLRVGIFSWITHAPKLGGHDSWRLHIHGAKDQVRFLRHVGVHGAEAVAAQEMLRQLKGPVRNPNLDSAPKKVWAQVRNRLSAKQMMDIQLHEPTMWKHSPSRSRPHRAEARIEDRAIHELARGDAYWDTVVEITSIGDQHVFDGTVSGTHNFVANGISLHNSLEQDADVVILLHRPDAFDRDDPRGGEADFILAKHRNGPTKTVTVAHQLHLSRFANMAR

Protein RecA = molecular target: T6, Protein RecA (Mycobacterium tuberculosis, UniProt P9WHJ3); assay: Fluorescence Cell-Free Homogeneous Dose Retest to Identify Inhibitors of RecA-Intein Splicing Activity. [Related pubchem assays (depositor defined):AID2097, AID2223, AID489010, AID492950]; type: functional
T6 sequence (P9WHJ3 whole entry): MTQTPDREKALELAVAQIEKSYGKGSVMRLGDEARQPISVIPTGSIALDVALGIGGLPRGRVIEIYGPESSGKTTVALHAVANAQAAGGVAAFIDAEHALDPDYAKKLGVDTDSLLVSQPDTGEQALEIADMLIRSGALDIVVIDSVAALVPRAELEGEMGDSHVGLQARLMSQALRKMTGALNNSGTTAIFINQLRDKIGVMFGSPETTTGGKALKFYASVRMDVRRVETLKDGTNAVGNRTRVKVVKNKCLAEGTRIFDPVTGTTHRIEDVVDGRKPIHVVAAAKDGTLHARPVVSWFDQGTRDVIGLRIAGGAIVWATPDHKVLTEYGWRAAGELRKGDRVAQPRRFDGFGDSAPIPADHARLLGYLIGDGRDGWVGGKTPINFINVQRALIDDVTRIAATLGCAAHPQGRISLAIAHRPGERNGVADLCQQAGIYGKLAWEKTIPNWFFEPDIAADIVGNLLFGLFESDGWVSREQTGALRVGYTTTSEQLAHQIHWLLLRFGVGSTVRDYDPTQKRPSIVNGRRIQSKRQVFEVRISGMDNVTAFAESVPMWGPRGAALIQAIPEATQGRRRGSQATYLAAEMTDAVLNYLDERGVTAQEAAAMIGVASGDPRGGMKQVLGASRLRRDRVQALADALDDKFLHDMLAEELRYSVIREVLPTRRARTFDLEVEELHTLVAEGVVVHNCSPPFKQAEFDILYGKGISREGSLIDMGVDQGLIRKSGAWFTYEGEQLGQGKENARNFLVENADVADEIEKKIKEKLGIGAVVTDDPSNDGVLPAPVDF

O=C(CCn1c(=O)[nH]c2ccsc2c1=O)NCc1ccc(F)cc1
IC50 [1]: < 0.4 µM (not active)

O=C1c2ccccc2C(=O)N1/N=C/c1ccc(O)c(O)c1
IC50 (Leucine aminopeptidase): 30.4 µM (active)
IC50 [2]: 44.5 µM (active)

COc1cccc(CNc2nn[nH]n2)c1OC
IC50 (Leucine aminopeptidase): 67.2 µM (active)

CCOC(=O)c1cnn(CCOC(=O)c2cccc(F)c2)c1NC(=O)c1cccc(F)c1
AC50 (Paired box protein Pax-8): 20 µM (active)

O=C1c2ccccc2NC(c2c[nH]nc2-c2ccc(Cl)cc2)N1O (configuration not stated)
EC50 [3]: > 160 µM (inactive)
EC50 [4]: > 38 µM (not active)

Cc1ccc(NC(=O)CSC2=C(C#N)C(c3ccco3)CC(=O)N2)cc1 (configuration not stated)
EC50 (H4): 16.1 µM (active)
EC50 [5]: 0.908 µM (active)
IC50 [6]: > 47.1 µM (inactive)
EC50 [7]: > 53 µM (inactive)
EC50 [8]: 12.4 µM (active)

O=C1C2CCCCC2C(=O)N1c1ccc(NC2CCCCC2)c([N+](=O)[O-])c1 (configuration not stated)
IC50 [1]: 4.65 µM (active)

CCCOC(=O)Nc1cc(OC)ccc1[N+](=O)[O-]
IC50 [1]: 8.71 µM (not active)

CC(=O)Nc1ccc(NC(=O)CCCN2C(=O)c3ccccc3C2=O)cc1
EC50 [3]: > 150 µM (inactive)

O=[N+]([O-])c1ccc(/C(=N\c2cccc3ccccc23)N2CCOCC2)cc1
EC50 [3]: > 150 µM (inactive)
EC50 [4]: > 38 µM (not active)

C/C(=C\c1ccco1)C1C(C#N)=C(N)Oc2[nH]nc(-c3ccccc3)c21 (configuration not stated)
AC50 [9]: 6.38 µM (active)
EC50 (Protein RecA): 3.12 µM (active)
IC50 (Leucine aminopeptidase): 83.7 µM (active)

CCOCCCNC(=O)C1CCC(CNS(=O)(=O)c2ccc(Cl)cc2)CC1 (configuration not stated)
IC50 [1]: > 50 µM (not active)

OC(CNCc1ccc(Cl)cc1)(c1ccccc1)c1ccc(F)cc1 (configuration not stated)
IC50 [1]: 12.1 µM (not active)

Cc1ccc(-c2nc(N)sc2-c2ccc(C)cc2)cc1
IC50 [1]: 3.19 µM (not active)

Cc1cc(NS(=O)(=O)c2ccc(NC(=O)CN3C(=O)c4ccccc4C3=O)cc2)nc(C)n1
IC50 (Leucine aminopeptidase): 64.4 µM (active)

CCCC1C(c2ccco2)NC(c2ccco2)CC1(C)O (configuration not stated)
EC50 [3]: > 150 µM (inactive)
EC50 [4]: 8.34 µM (active)

O=C(OCC(=O)N1CCN(C(=O)c2ccco2)CC1)c1cccc(S(=O)(=O)N2CCc3ccccc32)c1
AC50 (Paired box protein Pax-8): 1.38 µM (active)

CCOc1ccc(C2C(C(=O)Nc3ccccc3)=C(C)N=c3s/c(=C/c4cccc(OCC(=O)O)c4)c(=O)n32)cc1 (configuration not stated)
IC50 (Leucine aminopeptidase): 5.95 µM (active)

Cc1ccc(CNC(=O)CCCCCNc2nc(S)nc3ccccc23)cc1
IC50 [1]: 24.8 µM (not active)

OCCN1CCN(C(S)=NC2CCCC2)CC1
EC50 [3]: 50.8 µM (active)
EC50 [4]: 5.25 µM (active)

CC1CCCCN1C(=O)CSc1nc(O)cc(-c2ccccc2)n1 (configuration not stated)
IC50 (Leucine aminopeptidase): 63.5 µM (active)
